The target of one data set is human GlyT1c transporter (Homo sapiens (Human), UniProt P48067). The experiment in a line: Radioligand binding assay using recombinant CHO cell membranes expressing human GlyT1. The following applies: examples marked * tested as fumarate salts, read-out: radioligand binding Kiapp.
Data set [1] can be described thus: Metabolic stability in human liver microsomes. Type of data set: in vitro ADME. As to conditions: 0.5 μM test substance, NADPH, 37° C., scaled microsomal clearance, examples marked * tested as fumarate salts. The procedure: Metabolic stability was determined as follows:
0.5 μM test substance was preincubated together with human liver microsomes (0.25 mg of microsomal protein/[…]) in 0.05 M potassium phosphate buffer of pH 7.4 in microtiter plates at 37° C. for 5 min. The reaction was started by adding NADPH (1.0 mM). After 0, 5, 10, 15, 20 and 30 min the reaction was stopped and cooled with twice the amount of quench solution consisting of acetonitrile/methanol 1:1, and containing 0.2 μM carbutamide. The samples were frozen until analyzed. The remaining concentration of undegraded test substance was determined by LC MSMS. The half-life (T1/2) was determined from the gradient of the signal of test substance/unit time plot, al-lowing to calculate the half-life of the test substance, assuming first order kinetics, from the de-crease in the concentration of the compound with time. The microsomal clearance (mClint) was calculated as follows: mClint=((ln(2)/t1/2)/Microsomal Protein Concentration (mg/ml))*1000, leading to the unit of uL/min/mg. The scaled clearance (mClin_scaled) was calculated as mCLint_scaled=m CLint*(Microsomal Yield (mg/kg BW))/1000000*60, leading to the units L/hr/kg. The Microsomal Yield is defined by the specifics of the used microsomes. Calculations were modified from references: Di, The Society for Biomolecular Screening, 2003, 453-462; Obach, DMD, 1999 vol 27. N 11, 1350-1359.

Some results are limits rather than exact numbers.

The values that follow come from patent US9586945B2, “Aminochromane, aminothiochromane and amino-1,2,3,4-tetrahydroquinoline derivatives, pharmaceutical compositions containing them, and their use in therapy” (AbbVie Deutschland GmbH & Co. KG, priority 2013, dated 2017).

Chain of human GlyT1c transporter (P48067 whole entry): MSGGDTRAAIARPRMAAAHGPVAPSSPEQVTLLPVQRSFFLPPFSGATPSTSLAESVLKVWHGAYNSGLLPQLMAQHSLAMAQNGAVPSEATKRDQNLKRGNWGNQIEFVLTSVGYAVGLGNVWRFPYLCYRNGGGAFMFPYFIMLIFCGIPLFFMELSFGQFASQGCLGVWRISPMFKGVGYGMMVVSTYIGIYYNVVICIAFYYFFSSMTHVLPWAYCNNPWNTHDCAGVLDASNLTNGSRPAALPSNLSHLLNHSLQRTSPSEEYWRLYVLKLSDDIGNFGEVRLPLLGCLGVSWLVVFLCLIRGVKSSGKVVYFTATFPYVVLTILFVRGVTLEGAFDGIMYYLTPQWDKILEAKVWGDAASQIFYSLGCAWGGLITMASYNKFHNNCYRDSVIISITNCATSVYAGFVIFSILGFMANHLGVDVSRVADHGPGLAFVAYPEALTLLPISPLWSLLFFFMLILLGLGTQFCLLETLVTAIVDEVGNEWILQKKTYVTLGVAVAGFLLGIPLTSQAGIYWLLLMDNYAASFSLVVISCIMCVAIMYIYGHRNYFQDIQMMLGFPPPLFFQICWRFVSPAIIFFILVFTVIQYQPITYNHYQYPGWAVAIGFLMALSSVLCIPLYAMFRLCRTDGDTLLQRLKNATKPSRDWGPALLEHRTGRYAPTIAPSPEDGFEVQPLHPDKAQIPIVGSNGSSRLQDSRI

Consider `O=S(=O)(NC1CN(c2cc3c(cc2F)OC[C@@H](N2CCC2)[C@H]3Cc2ccccc2)C1)c1cccnc1F` (relative stereo) [Example 8, Cis-N-(1-(3-(azetidin-1-yl)-4-benzyl-7-fluorochroman-6-yl)azetidin-3-yl)-2-fluoropyridine-3-sulfonamide], for which the Ki on human GlyT1c transporter is at most 1 µM. The “human mCl” value in data set [1] is on record as “≦50 L/h/Kg”.

For `CNC1COc2ccc(N3CC(NS(=O)(=O)CC4CC4)C3)cc2C1Cc1ccccc1` (single isomer, unassigned) [Example 25, Cis-N-(1-(4-benzyl-3-(methylamino)chroman-6-yl)azetidin-3-yl)-1-cyclopropylmethanesulfonamide], the Ki on human GlyT1c transporter was at most 1 µM. In addition, the “human mCl” value in data set [1] is reported as “≦5 L/h/Kg”.

As to `O=S(=O)(CC1CC1)NC1CN(c2ccc3c(c2)[C@H](Cc2ccccc2)[C@H](N2CCC2)CO3)C1` (relative stereo) [Example 4, Cis-N-(1-(3-(azetidin-1-yl)-4-benzylchroman-6-yl)azetidin-3-yl)-1-cyclopropylmethanesulfonamide], the Ki at human GlyT1c transporter is at most 0.1 µM. In data set [1], the “human mCl” value is recorded as “≦5 L/h/Kg”.

Consider `Cn1cnc(S(=O)(=O)NC2CN(c3ccc4c(c3)C(Cc3ccccc3)C(N3CCC3)CO4)C2)c1` (stereo not shown) [Example 1, N-[1-[3-(azetidin-1-yl)-4-benzyl-chroman-6-yl]azetidin-3-yl]-1-methyl-imidazole-4-sulfonamide], for which the Ki at human GlyT1c transporter was at most 0.01 µM. Besides, the “human mCl” value in data set [1] is “≦5 L/h/Kg”.

Regarding `CCCS(=O)(=O)NC1CN(c2ccc3c(c2)[C@H](Cc2ccccc2)[C@H](N(CC)CC)CO3)C1` (relative stereo) [Example 30, Cis-N-(1-(4-benzyl-3-(diethylamino)chroman-6-yl)azetidin-3-yl)propane-1-sulfonamide], on human GlyT1c transporter, the Ki was at most 0.1 µM. Further, the “human mCl” value in data set [1] is reported as “≦50 L/h/Kg”.

Turning to `O=S(=O)(NC1CN(c2cc3c(cc2F)OC[C@@H](N2CCC2)[C@H]3Cc2ccccc2)C1)c1cccnn1` (relative stereo) [Example 9, Cis-N-(1-(3-(azetidin-1-yl)-4-benzyl-7-fluorochroman-6-yl)azetidin-3-yl)pyridazine-3-sulfonamide], the Ki on human GlyT1c transporter is at most 1 µM. The “human mCl” value in data set [1] is on record as “≦50 L/h/Kg”.

In the case of `CCCS(=O)(=O)NC1CN(c2ccc3c(c2)[C@H](Cc2ccccc2)[C@H](NCC2CC2)CO3)C1` (relative stereo) [Example 31, Cis-N-(1-(4-benzyl-3-((cyclopropylmethyl)amino)chroman-6-yl)azetidin-3-yl)propane-1-sulfonamide], the Ki on human GlyT1c transporter is at most 1 µM. Besides, the “human mCl” value in data set [1] is “≦5 L/h/Kg”.

Regarding `CNC1COc2ccc(N3CC(NS(=O)(=O)CC4CC4)C3)cc2C1Cc1ccccc1` (single isomer, unassigned) [Example 24, Cis-N-(1-(4-benzyl-3-(methylamino)chroman-6-yl)azetidin-3-yl)-1-cyclopropylmethanesulfonamide], the Ki at human GlyT1c transporter is at most 0.01 µM. Moreover, the “human mCl” value in data set [1] is given as “≦50 L/h/Kg”.

Turning to `CCCN[C@@H]1COc2ccc(N3CC(NS(=O)(=O)CCC)C3)cc2[C@@H]1Cc1ccccc1` (relative stereo) [Example 29, Cis-N-(1-(4-benzyl-3-(propylamino)chroman-6-yl)azetidin-3-yl)propane-1-sulfonamide], the Ki at human GlyT1c transporter is at most 0.1 µM. The “human mCl” value in data set [1] is recorded as “≦5 L/h/Kg”.

As for `CCCS(=O)(=O)NC1CN(c2cc3c(cc2F)OCC(NC)C3Cc2ccccc2)C1` (single isomer, unassigned) [Example 27, Cis-N-(1-(4-benzyl-7-fluoro-3-(methylamino)chroman-6-yl)azetidin-3-yl)propane-1-sulfonamide], on human GlyT1c transporter, the Ki is at most 0.01 µM. Besides, the “human mCl” value in data set [1] is recorded as “≦50 L/h/Kg”.

Take `CCS(=O)(=O)NC1CN(c2ccc3c(c2)[C@H](Cc2ccccc2)[C@H](N2CCC2)CO3)C1` (relative stereo) [Example 2, Cis-N-(1-(3-(azetidin-1-yl)-4-benzylchroman-6-yl)azetidin-3-yl)ethanesulfonamide]: at human GlyT1c transporter, the Ki is at most 1 µM. In data set [1], the “human mCl” value is recorded as “≦5 L/h/Kg”.

With `CCCS(=O)(=O)NC1CN(c2ccc3c(c2)[C@H](Cc2ccccc2)[C@H](NC2CCC2)CO3)C1` (relative stereo) [Example 32, Cis-N-(1-(4-benzyl-3-(cyclobutylamino)chroman-6-yl)azetidin-3-yl)propane-1-sulfonamide], on human GlyT1c transporter, the Ki was at most 1 µM. The “human mCl” value in data set [1] is “≦5 L/h/Kg”.

For `CCS(=O)(=O)NC1CN(c2ccc3c(c2)[C@H](Cc2ccccc2)[C@H](NC)CO3)C1` (relative stereo) [Example 12, Cis-N-(1-(-4-benzyl-3-(methylamino)chroman-6-yl)azetidin-3-yl)ethanesulfonamide], on human GlyT1c transporter, the Ki was at most 0.1 µM. In addition, the “human mCl” value in data set [1] is on record as “≦5 L/h/Kg”.

As to `N[C@@H]1COc2ccc(N3CC(NS(=O)(=O)CC4CC4)C3)cc2[C@@H]1Cc1ccccc1` (relative stereo) [Example 21, Cis-N-(1-(3-amino-4-benzylchroman-6-yl)azetidin-3-yl)-1-cyclopropylmethanesulfonamide], the Ki on human GlyT1c transporter is at most 0.01 µM. The “human mCl” value in data set [1] was “≦5 L/h/Kg”.

As for `CNC1COc2ccc(N3CC(NS(=O)(=O)CC4CC4)C3)cc2C1Cc1ccccc1` (racemic) [Example 13, Cis-N-(1-(4-benzyl-3-(methylamino)chroman-6-yl)azetidin-3-yl)-1-cyclopropylmethanesulfonamide], the Ki on human GlyT1c transporter was at most 0.01 µM. In addition, the “human mCl” value in data set [1] is “≦5 L/h/Kg”.

Turning to `CCCS(=O)(=O)NC1CN(c2cc3c(cc2F)OCC(NC)C3Cc2ccccc2)C1` (single isomer, unassigned) [Example 28, Cis-N-(1-(4-benzyl-7-fluoro-3-(methylamino)chroman-6-yl)azetidin-3-yl)propane-1-sulfonamide], the Ki on human GlyT1c transporter was at most 0.1 µM. The “human mCl” value in data set [1] is given as “≦5 L/h/Kg”.

For the molecule `CCCS(=O)(=O)NC1CN(c2ccc3c(c2)C(Cc2ccccc2)C(NC)CO3)C1` (single isomer, unassigned) [Example 23, Cis-N-(1-(4-benzyl-3-(methylamino)chroman-6-yl)azetidin-3-yl)propane-1-sulfonamide], the Ki on human GlyT1c transporter is at most 1 µM. The “human mCl” value in data set [1] is “≦50 L/h/Kg”.

In the case of `O=S(=O)(NC1CN(c2ccc3c(c2)[C@H](Cc2ccccc2)[C@H](N2CCC2)CO3)C1)c1cccnc1F` (relative stereo) [Example 10, Cis-N-(1-(3-(azetidin-1-yl)-4-benzylchroman-6-yl)azetidin-3-yl)-2-fluoropyridine-3-sulfonamide], on human GlyT1c transporter, the Ki is at most 0.1 µM. Also, the “human mCl” value in data set [1] is “≦5 L/h/Kg”.

On to `CCCS(=O)(=O)NC1CN(c2ccc3c(c2)C(Cc2ccccc2)C(NC)CO3)C1` (single isomer, unassigned) [Example 22, Cis-N-(1-(4-benzyl-3-(methylamino)chroman-6-yl)azetidin-3-yl)propane-1-sulfonamide], for which the Ki at human GlyT1c transporter is at most 0.01 µM. In addition, in data set [1], the “human mCl” value is on record as “≦5 L/h/Kg”.

For the molecule `CCCS(=O)(=O)NC1CN(c2ccc3c(c2)[C@H](Cc2ccccc2)[C@H](N2CCC2)CO3)C1` (relative stereo) [Example 3, Cis-N-(1-(3-(azetidin-1-yl)-4-benzylchroman-6-yl)azetidin-3-yl)propane-1-sulfonamide], the Ki on human GlyT1c transporter is at most 0.1 µM. In data set [1], the “human mCl” value is “≦5 L/h/Kg”.
